Test results as given in patent publication US20130045991A1, “NEUROPROTECTIVE MODULATION OF NMDA RECEPTOR SUBTYPE ACTIVITIES” (THE UNIVERSITY OF BRITISH COLUMBIA, priority 2005, published 2013).
Entries after “also recorded” stand apart in the source; their conditions may differ.

What was measured:
[1] = tested on: cortical neurons; test: NMDA-mediated excitotoxicity: neuronal apoptosis in cortical cultures; format: cell-based, rat; settings: 50 μM NMDA plus 10 μM glycine 20 min, assayed 20 h after; APV 50 μM, Ro25-6981 0.5 μM, NVP-AAM077 0.4 μM
Method: (§1) Mature neurons (11-14 DIV) were used for experiments.
(§2) To visualize injured neurons, Hoechst-33342 (10 μg/ml) was added to the culture medium 20 h after treatments and incubated for 45 min at 37 °C. Images were taken with a Leica DMIRE2 fluorescence microscope. Quantitative assessment of neuronal apoptosis was performed 20 h following treatments using a Cell Death Detection […] Kit (Roche Applied Science). Absorbance readings were determined using a spectrophotometric microplate reader. Data analyses were carried out according to the manufacturer's instructions. Data are expressed as the difference in apoptosis relative to control and are expressed as a percentage.

[2] = tested on: synaptic NMDA receptors; test: mEPSC recording, NMDA receptor-mediated component; format: cell-based, rat
[3] = tested on: middle cerebral artery occlusion (MCAo); test: MCAo focal ischemic stroke model, post-ischemic treatment; format: in vivo, rat; settings: for effect of co-administration on the glycine effect (infarct volume reduction): co-administered with glycine 800 mg/kg 4.5 h after stroke onset
From the text: In some clinical settings, it is desirable to implement therapy after the onset of neuronal injury, such as stroke or other ischemic events.
Transient cerebral focal ischemia was produced by middle cerebral artery occlusion (MCAo) as described (Aarts et al., 2002; Bederson et al., 1986; Longa et al., 1989). Briefly, male Sprague-Dawley rats (Charles River Laboratories) weighing ˜300 g were anesthetized and MCAo was achieved by introducing a 3-0 monofilament suture into the MCA via the internal carotid artery. Body temperature was maintained at 37.0±0.5° C., and blood pressure and blood gases were monitored during the experiments. Animals were sacrificed 24 h following MCAo onset. Cerebral infarction was analyzed using brain sections stained with hematoxylin and eosin (H & E) or 2,3,5-triphenyltetrazolium chloride (TTC). 10 min before the animals were sacrificed, two tests, the postural reflex test to examine upper body posture (Bederson et al., 1986) and the forelimb placing test to examine sensorimotor integration in forelimb placing responses to visual, tactile, and proprioceptive stimuli (De Ryck et al., 1989), were performed to grade neurological function on a scale of 0 to 12 (0=normal, 12=worst). In the pretreatment study, a single bolus of drugs (NR2A-specific antagonist NVP-AAM077 (2.4 mg/kg) or NR2B specific antagonist Ro 25-6981 (6 mg/kg) or vehicle (saline)) was infused intravenously 30 min before a 1-h MCAo. For post-treatment experiments, animals were subjected to a 1.5-h MCAo and drug treatments (glycine, 800 mg/kg; NVP-AAM077 and Ro 25-6981 at the same doses as in the pretreatment study) were then given via intraperitoneal injection (i.p.) 3 h after reperfusion (4.5 h after the onset of MCAo).
The activating effect on NR2A-containing receptors was mimicked with the application of the NMDA receptor co-agonist glycine in the presence of an […] NR2B antagonist. Glycine by itself potentiates the function of NMDA receptors that are activated by endogenously released glutamate from presynaptic terminals both in vitro and in vivo (Johnson et al., 1987; Lu et al., 2001; De et al., 2000).

[4] = tested on: cortical cultures; test: Oxygen and glucose deprivation (OGD), in vitro stroke model; format: cell-based, rat; settings: 1 h OGD; NVP-AAM077 0.4 μM or Ro 25-6981 0.5 μM; apoptosis 20 h after OGD
From the text: Taking advantage of the finding of the opposing roles of NR2A- and NR2B-containing NMDA receptors in mediating cell survival and death, one aspect of the invention involves modulating the activity of the two subpopulations of receptors to ameliorate neuronal injury following acute brain insults, such as stroke and brain trauma. To illustrate this aspect of the invention, we employed a well-characterized in vitro stroke model, oxygen and glucose deprivation (OGD) (Goldberg et al., 1993; Aarts et al., 2002). Cortical cultures of 11-14 DIV were exposed to an anaerobic atmosphere for 1 h in a glucose-free solution in the absence or the presence of either NVP-AAM077 (0.4 μM) or Ro 25-6981 (0.5 μM). Neuronal apoptosis was quantitatively determined 20 h after OGD.
To visualize injured neurons, Hoechst-33342 (10 μg/ml) was added to the culture medium 20 h after treatments and incubated for 45 min at 37 °C. Images were taken with a Leica DMIRE2 fluorescence microscope. Quantitative assessment of neuronal apoptosis was performed 20 h following treatments using a Cell Death Detection ELISAPLUS Kit (Roche Applied Science). Absorbance readings were determined using a spectrophotometric microplate reader. Data analyses were carried out according to the manufacturer's instructions. Data are expressed as the difference in apoptosis relative to control and are expressed as a percentage. […]

[5] = tested on: cortical neurons; test: Glycine pretreatment before NMDA-induced neuronal apoptosis; format: cell-based, rat; settings: co-applied with glycine; NVP-AAM077 0.4 μM, Ro25-6981 0.5 μM
Method: as §1, §2

[6] = tested on: cortical neurons; test: Neuronal apoptosis under basal, non-stimulated conditions; format: cell-based, rat; settings: no bicuculline stimulation
Method: Under bicuculline incubation, the increased action potential-dependent synaptic release of glutamate may lead to activation of extrasynaptic NMDA receptors by glutamate spillover.
as §2

[7] = tested on: NMDA receptors (NR2A- and NR2B-containing); test: Whole-cell currents evoked by NMDA in cultured cortical neurons; format: cell-based, rat; settings: for percentage blockade of NMDA-induced currents, applied alone: NVP-AAM077 0.4 μM or Ro25-6981 0.5 μM bath applied alone, 10 μM glycine, 5 μM strychnine, -60 mV; for percentage blockade of NMDA-induced currents, applied alone / percentage blockade of NMDA-induced currents, applied after blockade by the other antagonist: 50 μM NMDA; for percentage blockade of NMDA-induced currents, applied after blockade by the other antagonist: sequential application, NVP-AAM077 0.4 μM, Ro25-6981 0.5 μM

C[C@@H](CN1CCC(Cc2ccccc2)CC1)[C@@H](O)c1ccc(O)cc1 (relative stereo) [Ro 25-6981, [R-(R*,S*)]-α-(4-Hydroxyphenyl)-β-methyl-4-(phenylmethyl)-1-piperidinepropanol]
effect on NMDA-induced neuronal apoptosis/damage [1]: prevented NMDA-induced neuronal apoptosis | effect on slow NMDA receptor-mediated component of mEPSCs ([2]; -60 mV, zero added Mg2+, APV 50 μM, Ro 25-6981 0.5 μM): significantly reduced | NR2B-containing receptor-mediated (Ro 25-6981-sensitive) component of synaptic NMDA currents ([2]; Ro 25-6981 0.5 μM, n=5): 32.4±3.6% | effect of co-administration on the glycine effect (infarct volume reduction) [3]: resistant | neuroprotection / total infarct volume compared with MCAo alone ([3]; given 3 h after 1.5-h MCAo (4.5 h after stroke onset), MK801 1 mg/Kg, glycine 800 mg/Kg, Ro 25-6981 6 mg/Kg): did not provide any noticeable neuroprotection; also recorded: ineffectiveness | effect on OGD-induced neuronal apoptosis [4]: drastically reduced | effect on the neuroprotective effect of glycine pretreatment [5]: not by affected | effect on NVP-AAM077 (48 h)-induced apoptosis [6]: prevented | neuronal apoptosis after incubation for 48 h [6]: did not increase neuronal apoptosis | percentage blockade of NMDA-induced currents, applied alone [7]: 34.6%±1.8% | reduction in the percentage of NMDA current inhibition by Ro25-6981 following NVP-AAM077 blockade ([7]; alone vs after NVP-AAM077 0.4 μM): 5.6% | percentage blockade of NMDA-induced currents, applied after blockade by the other antagonist [7]: 29.0%±3.3%

C[C@H](NC(c1cccc2[nH]c(=O)c(=O)[nH]c12)P(=O)(O)O)c1ccc(Br)cc1 (stereo partly shown) [NVP-AAM077]
effect on NMDA-induced neuronal apoptosis/damage [1]: significantly enhanced | effect on the remainder (non-NR2B) of the synaptic NMDA currents ([2]; NVP-AAM077 0.4 μM, n=5): largely eliminated | effect of co-administration on the glycine effect (infarct volume reduction) [3]: abolished; also recorded: prevented | effect of co-administration on the glycine effect (infarct volume reduction) ([3]; listed as NVP-AAM066): abolished the neuroprotection offered by glycine | effect on OGD-induced neuronal apoptosis [4]: significantly enhanced OGD-induced neuronal apoptosis | effect on the neuroprotective effect of glycine pretreatment [5]: prevented | neuronal apoptosis after incubation for 4 h [6]: failed to increase neuronal apoptosis | neuronal apoptosis after incubation for 48 h [6]: significant increase in neuronal apoptosis | percentage blockade of NMDA-induced currents, applied alone [7]: 42.9%±5.9% | percentage blockade of NMDA-induced currents, applied after blockade by the other antagonist [7]: 43.4%±12.4%
